Assay results reported in patent publication US11066447B2, “Aureobasidium derivatives and methods of synthesis” (AureoGen Biosciences, Inc., priority 2016, dated 2021).
≈ marks a conversion by molar mass, not a printed value. Where two headings read alike, the source gives them in different places. Numbered stars: 1 amine (or outer) side, 2 acyl side, 3 side chain; on linkers, the order of the positions; unused ones are H or OH. Square brackets hold non-standard residues; d marks the D form. Peptide text beside a SMILES is read from it. X26 = CC1CCN(c2cnc(-c3cccc(C[C@@H](C(=O)[*:2])N(C)[*:1])c3)cn2)CC1; X20 = CN([C@@H](Cc1cccc(-c2cnn(C3CCCC3)c2)c1)C(=O)[*:2])[*:1]; X16 = CC(C)c1cc(-c2cccc(C[C@@H](C(=O)[*:2])N(C)[*:1])c2)ccn1; X18 = CN([C@@H](Cc1cccc(-c2ccc3ccncc3c2)c1)C(=O)[*:2])[*:1]; X25 = CN([C@@H](Cc1cccc(-c2ccc3cccnc3c2)c1)C(=O)[*:2])[*:1]; Hmp(2R,3S) = CC[C@H](C)[C@@H](O)C(=O)O; NMeVal(β-OH) = CN[C@H](C(=O)O)C(C)(C)O; NMeV = CN[C@H](C(=O)O)C(C)C

Columns and labels:
[1] = system: A. fumigatus MMX 5280 ATCC MYA-3626; experiment: MIC/MEC assay (CLSI microdilution); format: cell-based, Aspergillus fumigatus; details: for minimal effective concentration / MIC: Aspergillus fumigatus, 48 h
Protocol: (§1) Aureobasidin and test compounds (i.e., AbA derivatives of the present invention) were received from Kalexsyn, Inc. (Kalamazoo, Mich.) as powder and were stored at 4° C. until the day of assay. […] amphotericin was obtained from Sigma Aldrich and stored under like conditions. […] Ethanol (95%) was used as a solvent and diluent for all AbA compounds. Amphotericin B was tested from 0.06-64 μg/mL. Amphotericin B (Sigma Aldrich; St. Louis, Mo.; Cat No. A9528-100MG, Lot No. 120M4087) was dissolved and diluted with dimethylsulfoxide (DMSO; Sigma Aldrich; St. Louis, Mo.; Cat No. 472301 Lot No. SHBD2072V).
(§2) The solvents were added to the test agents and the stock solutions stood for approximately 1 hr at room temperature prior to use to auto sterilize. Stock solutions were prepared at 40× the desired top concentration in the test plate.
(§3) All of the test isolates were originally received from either the American Type Culture Collection (ATCC), clinical labs, or directly from Aureogen Biosciences. Organisms stored by Micromyx were cultured on agar medium appropriate to each organism. Colonies were picked by swab from the isolation plates and put into suspension in appropriate broth containing cryoprotectant. The suspensions were aliquoted into cryogenic vials and maintained at −80° C.
(§4) Prior to testing, Candida isolates were streaked from the frozen vials on Sabouraud dextrose agar. The yeast isolates were incubated for 48 hours at 35° C. before use. The fungal isolates were obtained from enumerated fungal stocks previously prepared at Micromyx and stored in phosphate buffered saline at 4° C.
(§5) Test Media. The medium employed for the MIC assay was RPMI-1640 medium from HyClone Laboratories (Logan, Utah; Lot No. AYB60287A). The medium was prepared according to Clinical and Laboratory Standards Institute (CLSI) guidelines (1, 2), and modified to include 0.002% Tween-80. Candida parapsilosis ATCC 22019 (MMX 2323) and Aspergillus fumigatus ATCC MYA-3626 (MMX 5280) were also tested without Tween-80 to provide data for the quality control of amphotericin B in accordance with CLSI (3) and to assess the effect of Tween-80 on the activity of the test agents.
(§6) Test Procedure. The MIC assay method followed the procedure described by CLSI (1, 2) and employed automated liquid handlers to conduct serial dilutions and liquid transfers. Automated liquid handlers included the Multidrop 384 (Labsystems, Helsinki, Finland), Biomek 2000 and Biomek FX (Beckman Coulter, Fullerton Calif.). The wells in columns 2-12 in standard 96-well microdilution plates (Costar 3795) were filled with 150 μl of the appropriate diluent (95% EtOH for investigational compounds, 100% DMSO for amphotericin B). These assay plates would become the ‘mother plates’ from which the assay ‘daughter plates’ would be prepared. The drugs (300 μL at 40× the desired top concentration in the test plates) were dispensed into the appropriate well in Column 1 of the mother plates. The Biomek 2000 was used to make two-fold serial dilutions through Column 11 in the “mother plate”. The wells of Column 12 contained no drug and served as the organism growth control wells.
(§7) The daughter plates were loaded with 185 μL per well on the Multidrop 384 with RPMI plus 0.002% Tween-80 or RPMI containing no Tween-80 for the testing of the two QC isolates. The daughter plates were prepared on the Biomek FX instrument which transferred 5 μL of drug solution from each well of a mother plate to each corresponding well of each daughter plate in a single step.
(§8) A standardized inoculum of each organism was prepared per CLSI methods (1, 2). For the Candida isolates, colonies were picked from the streak plate and a suspension was prepared in RPMI to equal a 0.5 McFarland standard. This suspension was diluted 1:100 in RPMI resulting in a final concentration of approximately 0.5-2.5×10^3 CFU/mL. […]

[2] = system: A. fumigatus MMX 6782 ATCC 13073; experiment: MIC/MEC assay (CLSI microdilution); format: cell-based; details: Aspergillus fumigatus, ATCC13073, 48 h; for minimal effective concentration: RPMI plus 0.002% Tween-80, read-out: MEC; for MIC: RPMI plus 0.002% Tween-80, read-out: MIC
Protocol: as §1, §2, §3, §4, §5, §6, §7, §8

A. fumigatus MMX 5944 = experiment: MIC/MEC assay (CLSI microdilution); format: cell-based; details: Aspergillus fumigatus, MMX5944, 48 h; for minimal effective concentration: RPMI plus 0.002% Tween-80; for MIC: RPMI plus 0.002% Tween-80, read-out: MIC
Protocol: as §1, §2, §3, §4, §5, §6, §7, §8

[3] = system: A. fumigatus from Aureogen; experiment: MIC/MEC assay (CLSI microdilution); format: cell-based; details: Aspergillus fumigatus, 48 h; for minimal effective concentration: RPMI plus 0.002% Tween-80; for MIC: RPMI plus 0.002% Tween-80, read-out: MIC
Protocol: as §1, §2, §3, §4, §5, §6, §7, §8

[4] = system: A. fumigatus MMX 6781 ATCC MYA-4609; experiment: MIC/MEC assay (CLSI microdilution); format: cell-based
Protocol: as §1, §2, §3, §4, §5, §6, §7, §8

[5] = system: A. niger MMX 0624 ATCC 16888; experiment: MIC/MEC assay (CLSI microdilution); format: cell-based; details: Aspergillus niger, ATCC16888, 48 h; for minimal effective concentration: RPMI plus 0.002% Tween-80, read-out: MEC; for MIC: RPMI plus 0.002% Tween-80, read-out: MIC
Protocol: as §1, §2, §3, §4, §5, §6, §7, §8

A. flavus MMX 5948 = experiment: MIC/MEC assay (CLSI microdilution); format: cell-based; details: Aspergillus flavus, MMX5948, 48 h; for minimal effective concentration: RPMI plus 0.002% Tween-80; for MIC: RPMI plus 0.002% Tween-80, read-out: MIC
Protocol: as §1, §2, §3, §4, §5, §6, §7, §8

[6] = system: C. parapsilosis MMX 2323 ATCC 22019; experiment: MIC assay (CLSI microdilution); format: cell-based, Candida parapsilosis; details: read-out: MIC
Protocol: as §1, §2, §3, §4, §5, §6, §7, §8

[7] = system: C. neoformans MMX 0634 ATCC 90112; experiment: MIC assay (CLSI microdilution); format: cell-based; details: Cryptococcus neoformans, ATCC90112, RPMI plus 0.002% Tween-80; read-out: MIC
Protocol: as §1, §2, §3, §4, §5, §6, §7, §8

[8] = system: C. albicans MMX 2000 ATCC 10231; experiment: MIC assay (CLSI microdilution); format: cell-based; details: Candida albicans, ATCC10231, RPMI plus 0.002% Tween-80; read-out: MIC
Protocol: as §1, §2, §3, §4, §5, §6, §7, §8

[9] = RPMI plus 0.002% Tween-80, read-out: MEC
[10] = RPMI plus 0.002% Tween-80, read-out: MIC
[11] = Without Tween-80, read-out: MIC
[12] = Aspergillus fumigatus, 48 h, RPMI plus 0.002% Tween-80, read-out: MIC
[13] = Aspergillus fumigatus, RPMI plus 0.002% Tween-80, 48 hr
[14] = ATCC22019, RPMI plus 0.002% Tween-80
[15] = Without Tween-80, read-out: MEC
[16] = RPMI plus 0.002% Tween-80, 48 hr

MIC [1, 10]	MIC [1, 11]	MIC [2]	MIC (A. fumigatus MMX 5944)	MIC [3]	MIC [4, 12]	MIC [5]	MIC (A. flavus MMX 5948)	MIC [6, 14]	MIC ([6]; ATCC22019, Without Tween-80)	MIC [7]	MIC [8]	SMILES	minimal effective concentration [1, 9]	minimal effective concentration [2]	minimal effective concentration (A. fumigatus MMX 5944)	minimal effective concentration [3]	minimal effective concentration [4, 13]	minimal effective concentration [5]	minimal effective concentration (A. flavus MMX 5948)	minimal effective concentration [1, 15]	further results
1 µg/mL	2 µg/mL (≈ 1.63 µM)	1 µg/mL	0.5 µg/mL	1 µg/mL	1 µg/mL	0.06 µg/mL	1 µg/mL	0.12 µg/mL	1 µg/mL (≈ 0.814 µM)	0.12 µg/mL	0.03 µg/mL	CC[C@H](C)[C@@H]1NC(=O)[C@@H]2CCCN2C(=O)[C@H](Cc2cccc(-c3ccc4cccnc4c3)c2)N(C)C(=O)[C@H](Cc2ccccc2)NC(=O)[C@H](C(C)C)N(C)C(=O)[C@@H]([C@@H](C)CC)OC(=O)[C@H](C(C)(C)O)N(C)C(=O)[C@H](CC(C)C)NC(=O)[C@H](C(C)C)N(C)C1=O [Compound 10] (cyclo(F[X25]PI[NMeV]L[NMeVal(β-OH)][Hmp(2R,3S)][NMeV]))	0.25 µg/mL	0.25 µg/mL	0.12 µg/mL	0.25 µg/mL	0.25 µg/mL	0.06 µg/mL	0.5 µg/mL		MEC ([1]; Without Tween-80, 48 hr): 1 µg/mL
> 64 µg/mL	> 64 µg/mL	> 64 µg/mL	> 64 µg/mL	> 64 µg/mL		0.5 µg/mL	> 64 µg/mL	0.25 µg/mL	1 µg/mL (≈ 0.783 µM)	0.25 µg/mL	0.06 µg/mL	CC[C@H](C)[C@@H]1NC(=O)[C@@H]2CCCN2C(=O)[C@H](Cc2cccc(-c3cnc(N4CCC(C)CC4)cn3)c2)N(C)C(=O)[C@H](Cc2ccccc2)NC(=O)[C@H](C(C)C)N(C)C(=O)[C@@H]([C@@H](C)CC)OC(=O)[C@H](C(C)(C)O)N(C)C(=O)[C@H](CC(C)C)NC(=O)[C@H](C(C)C)N(C)C1=O [Compound 11] (cyclo(F[X26]PI[NMeV]L[NMeVal(β-OH)][Hmp(2R,3S)][NMeV]))	8 µg/mL	0.5 µg/mL	2 µg/mL	2 µg/mL		0.5 µg/mL	1 µg/mL	4 µg/mL	MEC [4, 16]: 8 µg/mL; MIC [4, 16]: 64 µg/mL
> 64 µg/mL	> 64 µg/mL	> 64 µg/mL	> 64 µg/mL	> 64 µg/mL	> 64 µg/mL	> 64 µg/mL	> 64 µg/mL	0.12 µg/mL	1 µg/mL (≈ 0.809 µM)	0.5 µg/mL	0.03 µg/mL	CC[C@H](C)[C@@H]1NC(=O)[C@@H]2CCCN2C(=O)[C@H](Cc2cccc(-c3cnn(C4CCCC4)c3)c2)N(C)C(=O)[C@H](Cc2ccccc2)NC(=O)[C@H](C(C)C)N(C)C(=O)[C@@H]([C@@H](C)CC)OC(=O)[C@H](C(C)(C)O)N(C)C(=O)[C@H](CC(C)C)NC(=O)[C@H](C(C)C)N(C)C1=O [Compound 12] (cyclo(F[X20]PI[NMeV]L[NMeVal(β-OH)][Hmp(2R,3S)][NMeV]))	> 64 µg/mL	> 64 µg/mL	> 64 µg/mL	> 64 µg/mL	> 64 µg/mL	> 64 µg/mL	> 64 µg/mL	> 64 µg/mL	
> 64 µg/mL	> 64 µg/mL	> 64 µg/mL	> 64 µg/mL	> 64 µg/mL	> 64 µg/mL	0.5 µg/mL	1 µg/mL	0.12 µg/mL	1 µg/mL (≈ 0.819 µM)	0.12 µg/mL	0.03 µg/mL	CC[C@H](C)[C@@H]1NC(=O)[C@@H]2CCCN2C(=O)[C@H](Cc2cccc(-c3ccnc(C(C)C)c3)c2)N(C)C(=O)[C@H](Cc2ccccc2)NC(=O)[C@H](C(C)C)N(C)C(=O)[C@@H]([C@@H](C)CC)OC(=O)[C@H](C(C)(C)O)N(C)C(=O)[C@H](CC(C)C)NC(=O)[C@H](C(C)C)N(C)C1=O [Compound 16] (cyclo(F[X16]PI[NMeV]L[NMeVal(β-OH)][Hmp(2R,3S)][NMeV]))	2 µg/mL	1 µg/mL	2 µg/mL	2 µg/mL	2 µg/mL	0.5 µg/mL	0.5 µg/mL	2 µg/mL	
> 64 µg/mL	> 64 µg/mL	> 64 µg/mL	> 64 µg/mL	> 64 µg/mL	> 64 µg/mL	0.12 µg/mL	0.5 µg/mL	0.06 µg/mL	1 µg/mL (≈ 0.814 µM)	0.25 µg/mL	0.015 µg/mL	CC[C@H](C)[C@@H]1NC(=O)[C@@H]2CCCN2C(=O)[C@H](Cc2cccc(-c3ccc4ccncc4c3)c2)N(C)C(=O)[C@H](Cc2ccccc2)NC(=O)[C@H](C(C)C)N(C)C(=O)[C@@H]([C@@H](C)CC)OC(=O)[C@H](C(C)(C)O)N(C)C(=O)[C@H](CC(C)C)NC(=O)[C@H](C(C)C)N(C)C1=O [Compound 17] (cyclo(F[X18]PI[NMeV]L[NMeVal(β-OH)][Hmp(2R,3S)][NMeV]))	> 64 µg/mL	> 64 µg/mL	> 64 µg/mL	> 64 µg/mL	> 64 µg/mL	0.06 µg/mL	0.12 µg/mL	> 64 µg/mL	
